Measurements from patent US11458140B2, “Annulated glycosidase inhibitors” (Asceneuron SA, priority 2017, dated 2022).
Where two headings read alike, the source gives them in different places.

Biological target: Human O-GlcNAcase (His-Tagged hOGA) (Homo sapiens (Human), UniProt O60502)
Experiment: Human O-GlcNAcase enzyme inhibition assay (FL-GlcNAc fluorescence)
Assay type: biochemical
Details: His-Tagged hOGA 20 nM, FL-GlcNAc 10 μM, 60 min at room temperature, pH 6.5
Protocol: Then, 20 nM of His-Tagged hOGA and 10 μM of FL-GlcNAc (Fluorescein mono-beta-D-(2-deoxy-2-N-acetyl) glucopyranoside; Marker Gene Technologies Inc, M1485) were added to the 384-well plate for a final volume of 20 μl.

Human O-GlcNAcase (His-Tagged hOGA), sequence (O60502 whole entry): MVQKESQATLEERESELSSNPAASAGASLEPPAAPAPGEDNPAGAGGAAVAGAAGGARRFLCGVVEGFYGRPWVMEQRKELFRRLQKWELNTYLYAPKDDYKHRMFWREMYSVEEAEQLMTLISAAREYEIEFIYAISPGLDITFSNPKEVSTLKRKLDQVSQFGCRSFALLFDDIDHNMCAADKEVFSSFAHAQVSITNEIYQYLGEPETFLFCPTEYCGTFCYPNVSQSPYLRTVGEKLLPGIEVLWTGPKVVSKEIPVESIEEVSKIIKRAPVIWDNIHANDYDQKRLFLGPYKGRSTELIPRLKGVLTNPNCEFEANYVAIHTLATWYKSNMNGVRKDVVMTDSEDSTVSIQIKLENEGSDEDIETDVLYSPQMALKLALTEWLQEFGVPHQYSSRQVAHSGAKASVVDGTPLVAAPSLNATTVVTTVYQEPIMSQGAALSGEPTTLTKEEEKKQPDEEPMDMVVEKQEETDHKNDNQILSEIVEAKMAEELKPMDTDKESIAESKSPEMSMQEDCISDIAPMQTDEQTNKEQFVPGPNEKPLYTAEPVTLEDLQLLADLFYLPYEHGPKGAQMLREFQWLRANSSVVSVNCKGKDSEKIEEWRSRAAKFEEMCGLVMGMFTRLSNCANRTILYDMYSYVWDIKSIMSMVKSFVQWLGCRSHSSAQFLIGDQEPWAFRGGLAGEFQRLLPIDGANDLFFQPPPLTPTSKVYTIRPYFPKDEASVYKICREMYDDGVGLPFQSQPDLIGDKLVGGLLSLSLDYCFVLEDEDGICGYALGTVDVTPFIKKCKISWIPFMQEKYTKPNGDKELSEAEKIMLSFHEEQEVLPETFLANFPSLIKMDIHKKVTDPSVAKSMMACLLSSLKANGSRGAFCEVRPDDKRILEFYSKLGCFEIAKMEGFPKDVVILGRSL

| Compound | IC50 (read-out: Enzymatic OGA IC50) [M] | IC50 (Enzymatic OGA IC50 (M)) [M] |
| --- | --- | --- |
| 5-(1-(2,3-dihydrobenzofuran-6-yl)ethyl)-1-(pyridin-2-yl)-4,5,6,7-tetrahydro-1H-pyrazolo[4,3-c]pyridine [Example 9] | 5e-08 to 2e-07 |  |
| 5-(1-(2,3-dihydrobenzofuran-6-yl)ethyl)-2-(pyridin-2-yl)-4,5,6,7-tetrahydro-2H-pyrazolo[4,3-c]pyridine [Example 10] | 5e-08 to 2e-07 |  |
| CC(=O)Nc1ncc2c(n1)CCN(C(C)c1ccc3c(c1)OCO3)C2 (racemic) [Example 1, N-(6-(1-(benzo[d][1,3]dioxol-5-yl)ethyl)-5,6,7,8-tetrahydropyrido[4,3-d]pyrimidin-2-yl)acetamide] | 1e-06 to 1e-05 |  |
| CC(c1ccc2c(c1)OCO2)N1CCc2ccccc2C1 (racemic) [Example 2, 2-(1-(benzo[d][1,3]dioxol-5-yl)ethyl)-1,2,3,4-tetrahydroisoquinoline] | 2e-07 to 1e-06 |  |
| CC(=O)Nc1nc2c(s1)CN(C(C)c1ccc3c(c1)OCO3)CC2 (racemic) [Example 3, N-(5-(1-(benzo[d][1,3]dioxol-5-yl)ethyl)-4,5,6,7-tetrahydrothiazolo[5,4-c]pyridin-2-yl)acetamide] |  | 2e-07 to 1e-06 |
| CC(c1ccc2c(c1)OCC2)N1CCc2n[nH]cc2C1 (racemic) [Example 4, 5-(1-(2,3-dihydrobenzofuran-6-yl)ethyl)-4,5,6,7-tetrahydro-2H-pyrazolo[4,3-c]pyridine] | 5e-08 to 2e-07 |  |
| CC(c1ccc2c(c1)OCC2)N1CCc2c(cnn2-c2ccc(F)cc2)C1 (racemic) [Example 5, 5-(1-(2,3-dihydrobenzofuran-6-yl)ethyl)-1-(4-fluorophenyl)-4,5,6,7-tetrahydro-1H-pyrazolo[4,3-c]pyridine] | 5e-08 to 2e-07 |  |
| CC(c1ccc2c(c1)OCC2)N1CCc2nn(-c3ccc(F)cc3)cc2C1 (racemic) [Example 6, 5-(1-(2,3-dihydrobenzofuran-6-yl)ethyl)-2-(4-fluorophenyl)-4,5,6,7-tetrahydro-2H-pyrazolo[4,3-c]pyridine] | 5e-08 to 2e-07 |  |
| CC(c1ccc2c(c1)OCC2)N1CCc2c(cnn2-c2ccccc2)C1 (racemic) [Example 7, 5-(1-(2,3-dihydrobenzofuran-6-yl)ethyl)-1-phenyl-4,5,6,7-tetrahydro-1H-pyrazolo[4,3-c]pyridine] | 5e-08 to 2e-07 |  |
| CC(c1ccc2c(c1)OCC2)N1CCc2nn(-c3ccccc3)cc2C1 (racemic) [Example 8, 5-(1-(2,3-dihydrobenzofuran-6-yl)ethyl)-2-phenyl-4,5,6,7-tetrahydro-2H-pyrazolo[4,3-c]pyridine] | 5e-08 to 2e-07 |  |
| CC(c1ccc2c(c1)OCC2)N1CCc2nc(-c3ccc(F)cc3)sc2C1 (racemic) [Example 11, 5-(1-(2,3-dihydrobenzofuran-6-yl)ethyl)-2-(4-fluorophenyl)-4,5,6,7-tetrahydrothiazolo[5,4-c]pyridine] | 2e-07 to 1e-06 |  |
| CC(c1ccc2c(c1)OCC2)N1CCc2c(cnn2-c2cncnc2)C1 (racemic) [Example 14, 5-(1-(2,3-dihydrobenzofuran-6-yl)ethyl)-1-(pyrimidin-5-yl)-4,5,6,7-tetrahydro-1H-pyrazolo[4,3-c]pyridine] | 2e-07 to 1e-06 |  |
| CC(c1ccc2c(c1)OCC2)N1CCn2nc(-c3ccc(S(C)(=O)=O)cc3)nc2C1 (racemic) [Example 17] |  | 1e-06 to 1e-05 |
| CC(c1ccc2c(c1)OCC2)N1CCn2nc(-c3cccnc3)nc2C1 (racemic) [Example 18, 7-(1-(2,3-dihydrobenzofuran-6-yl)ethyl)-2-(pyridin-3-yl)-5,6,7,8-tetrahydro-[1,2,4]triazolo[1,5-a]pyrazine] | 1e-06 to 1e-05 |  |
| CC(c1ccc2c(c1)OCC2)N1CCn2nc(Nc3ccc(C#N)cn3)nc2C1 (racemic) [Example 19, 6-((7-(1-(2,3-dihydrobenzofuran-6-yl)ethyl)-5,6,7,8-tetrahydro-[1,2,4]triazolo[1,5-a]pyrazin-2-yl)amino)nicotinonitrile] | 1e-06 to 1e-05 |  |
| CC(c1ccc2c(c1)OCC2)N1CCc2nn(Cc3ncccn3)cc2C1 (racemic) [Example 20, 5-(1-(2,3-dihydrobenzofuran-6-yl)ethyl)-2-(pyrimidin-2-ylmethyl)-4,5,6,7-tetrahydro-2H-pyrazolo[4,3-c]pyridine] | 2e-07 to 1e-06 |  |
| CC(c1ccc2c(c1)OCC2)N1CCc2c(cnn2Cc2ncccn2)C1 (racemic) [Example 21, 5-(1-(2,3-dihydrobenzofuran-6-yl)ethyl)-1-(pyrimidin-2-ylmethyl)-4,5,6,7-tetrahydro-1H-pyrazolo[4,3-c]pyridine] | 2e-07 to 1e-06 |  |
| CC(c1ccc2c(c1)OCC2)N1CCc2nn(-c3ccccc3)cc2C1 (single isomer, unassigned) [Example 12] | 1e-06 to 1e-05 |  |
| CC(c1ccc2c(c1)OCC2)N1CCc2nn(-c3ccccc3)cc2C1 (single isomer, unassigned) [Example 13] | 5e-08 to 2e-07 |  |
| CC(c1ccc2c(c1)OCC2)N1CCc2nn(C3CCOCC3)cc2C1 (centres unmarked) [Example 15, 5-(1-(2,3-dihydrobenzofuran-6-yl)ethyl)-1-(tetrahydro-2H-pyran-4-yl)-4,5,6,7-tetrahydro-1H-pyrazolo[4,3-c]pyridine or 5-(1-(2,3-dihydrobenzofuran-6-yl)ethyl)-2-(tetrahydro-2H-pyran-4-yl)-4,5,6,7-tetrahydro-2H-pyrazolo[4,3-c]pyridine] | 1e-06 to 1e-05 |  |
